Columns and labels:
Assay type in all cases: cell-based, human
HT-29 [1] = assay: Superoxide anion level, DHE probe; conditions: compound at IC50, 24 h, vs control
Method: Superoxide anion (O2^•−) levels were quantified using a microplate spectrofluorometric assay with dihydroethidium (DHE) (Life Technologies, Carlsbad, CA, USA). DHE is a well-established fluorogenic probe for intracellular superoxide detection. […] The reaction between superoxide and DHE produces a highly specific red fluorescent product, 2-hydroxyethidium (2-OH-E ^+).
(§1) Cells were seeded in black 96-well fluorometric microplates at a density of 10 × 10^3 cells/mL. […] Following compound incubation, the medium was removed, and the cell monolayers were washed twice with HBSS (140 mM NaCl, 5 mM KCl, 0.8 mM MgCl2, 1.8 mM CaCl2, 1 mM Na2HPO4, 10 mM HEPES, and 1% glucose). A volume of 50 µL of DHE solution in HBSS (final concentration 5 μM) was added to each well, and the cells were incubated for 30 min in the dark at 37 °C. After incubation with the DHE, fluorescence measurements were conducted using a Perkin-Elmer LS-5B spectrofluorometer (Waltham, MA, USA) at the following excitation and fluorescence emission wavelengths: λex = 498 nm/λem = 582 nm. The fluorescence intensity of control cells was arbitrarily assigned a value of 100%. The results were expressed as percentages of control, calculated by comparing the fluorescence intensity ratio of the test samples to controls (100%). The fluorescence of samples was denoted as Δf in relation to the control.

HT-29 [2] = assay: Autophagy induction, monodansylcadaverine (MDC) fluorescence; conditions: compound at IC50, 24 h, vs control
Method: Autophagy induction in cells treated with the tested drugs was determined by measuring Monodansylcadaverine (MDC; Sigma-Aldrich; St. Louis, MO, USA) fluorescence according to a modified method described by Vázquez. […] In the cell, MDC accumulates in lipid-rich cell membranes. It has been shown that MDC can be used as a dye for detecting autophagy, as it accumulates in autophagolysosomes as a result of interaction with membrane lipids.
Cells were seeded in black 96-well fluorometric microplates at a density of 10 × 10^3 cells/mL. […] Following compound incubation, the medium was removed, and the cell monolayers were washed twice with HBSS (140 mM NaCl, 5 mM KCl, 0.8 mM MgCl2, 1.8 mM CaCl2, 1 mM Na2HPO4, 10 mM HEPES, and 1% glucose). A solution of MDC at a final concentration of 50 μM was added to each well and incubated in a CO2 cell culture incubator at 37 °C for 15 min. After incubation with MDC, the probe was removed, and the cells were lysed with 50 μL of lysis buffer (10 mM TRIS-HCl; pH 8 containing 0.1% Triton X-100). After lysis, fluorescence was measured at an excitation wavelength of λex = 390 nm and an emission wavelength of λem = 460 nm using a Perkin-Elmer LS-5B spectrofluorometer (Waltham, MA, USA). In order to normalize the number of cells in individual samples, the amount of DNA was determined by adding 50 μL of EB (final concentration 0.2 mM) to each well after measuring the MCB fluorescence and measuring the EB fluorescence at an excitation wavelength of λex = 530 nm and an emission wavelength of λem = 590 nm. The results were calculated as the ratio of MDC fluorescence to EB fluorescence.

HT-29 [3] = assay: Hydrogen peroxide level, H2DCFDA probe; conditions: compound at IC50, 24 h, vs control
Method: Cellular H2O2 levels were assessed using 2′,7′-dichlorodihydrofluorescein diacetate (H2DCFDA, Sigma-Aldrich, St. Louis, MO, USA), a well-established fluorogenic probe for intracellular hydrogen peroxide detection. H2DCFDA readily diffuses across the cell membrane and is subsequently hydrolyzed by intracellular esterases to non-fluorescent H2DCF. Oxidation of H2DCF by ROS generates highly fluorescent 2′,7′-dichlorofluorescein (DCF), which accumulates in the cytosol. […] The fluorescence intensity of DCF is directly proportional to the concentration of ROS within the cell.
as §1, with “H2DCFDA” for “DHE”, “H2DCFDA,” for “DHE,”, “(MA,” for “(Waltham, MA,”, “522” for “582”

LoVo = assay: MTT test after pre-incubation with antioxidants NAC or Trolox; conditions: vs cells without antioxidant pre-incubation
Method: Moreover, the elevation of ROS levels was accompanied by a decrease in intracellular GSH. To investigate the role of ROS in the cytotoxic activity of flavonoid derivatives against cancer cells, LoVo cancer cells were pre-treated with antioxidants, NAC or a water-soluble derivative of vitamin E (Trolox), for 1 h before exposure to the studied compounds. Subsequently, the MTT assay was performed.
To elucidate the involvement of ROS in the cytotoxic effects of the investigated compounds, cells were pre-treated with the vitamin E (Trolox, Sigma-Aldrich, St. Louis, MO, USA) or N-Acetylcysteine (NAC) antioxidants for 1 h. Cells were seeded into sterile, colorless 96-well microplates at a density of 6–8 × 10^3 cells/mL, contingent upon the cell line. Following a 24 h culture period, Trolox or NAC was added at a final concentration of 50 μM and 3 mM, respectively. After 1 h of incubation, the antioxidants were removed by washing, and test compounds were administered at appropriate concentrations (10–200 μM) in fresh cell culture medium, followed by a 24 h incubation. The MTT assay was then conducted under identical experimental conditions, as detailed in Section 2.2.

Row | SMILES | Increase in O2−• (superoxide anion) levels (HT-29 [1]) | Increase in MDC fluorescence intensity (autophagy) (HT-29 [2]) [%] | Increase in H2O2 levels (HT-29 [3]) | Change of the IC50 value after pre-incubation with Trolox (LoVo)
1 | O=C1/C(=C/c2ccccc2)COc2ccccc21 [Compound 1] | approximately 40% | 25 | approximately 25% | 
2 | COc1cccc(/C=C2/C(=O)c3ccccc3OC2c2ccccc2)c1 (centres unmarked) [Compound 3] |  |  |  | Statistically significant increases in the IC50 value
3 | O=C1/C(=C/c2ccccc2)C(c2ccccc2)Oc2ccccc21 (centres unmarked) [Compound 5] | ~35% | 20 | around 15% | Statistically significant increases in the IC50 value
